How the values were obtained:
Type in all cases: in vivo
Pine Caterpillar Larva = assay: Insecticidal activity test on pine caterpillar larva (spray)
Description: 2. Insecticidal Activity Test on Pine Caterpillar Larva
The mortality of pine caterpillar larva was investigated after uniformly spraying pine feed trees and pine caterpillar larva with spraying solutions at prescribed concentrations using a sprayer.

[1] = system: Adult Japanese Pine Sawyer; assay: Insecticidal activity test on Japanese pine sawyer (sprayed pine feed trees)
Description: 1. Insecticidal Activity Test on Japanese Pine Sawyer
After uniformly spraying pine feed trees with spraying solutions at prescribed concentrations using a sprayer, adult Japanese pine sawyers were used in testing to investigate the progress of their mortality and degree of infestation.

Fall Webworm Larva = assay: Insecticidal activity test on fall webworm larva (spray)
Description: 3. Insecticidal Activity Test on Fall Webworm Larva
The progress of the mortality of fall webworm larva was investigated after uniformly spraying feed trees (cherry) and fall webworm larva with spraying solutions at prescribed concentrations using a sprayer.

SMILES | Mortality (%) After 1 day (Pine Caterpillar Larva; spraying solution 100 ppm) [%] | Mortality (%) After 3 days (Pine Caterpillar Larva; spraying solution 100 ppm) [%] | Mortality (%) After 7 days (Pine Caterpillar Larva; spraying solution 100 ppm) [%] | Mortality (%) After 1 day (Pine Caterpillar Larva; spraying solution 200 ppm) [%] | Mortality (%) After 3 days (Pine Caterpillar Larva; spraying solution 200 ppm) [%] | Average infested area (cm2) ([1]; spraying solution 5 ppm) | Mortality (%) After 1 day ([1]; spraying solution 5 ppm) [%] | Mortality (%) After 3 days ([1]; spraying solution 5 ppm) [%] | Mortality (%) After 7 days ([1]; spraying solution 5 ppm) [%] | Average infested area (cm2) ([1]; spraying solution 10 ppm) | Mortality (%) After 1 day ([1]; spraying solution 10 ppm) [%] | Mortality (%) After 3 days ([1]; spraying solution 10 ppm) [%] | Mortality (%) After 7 days ([1]; spraying solution 10 ppm) [%] | Average infested area (cm2) ([1]; spraying solution 20 ppm) | Mortality (%) After 1 day ([1]; spraying solution 20 ppm) [%] | Mortality (%) After 3 days ([1]; spraying solution 20 ppm) [%] | Average infested area (cm2) ([1]; spraying solution 40 ppm) | Mortality (%) After 1 day ([1]; spraying solution 40 ppm) [%] | Mortality (%) After 1 day (Fall Webworm Larva; spraying solution 100 ppm) [%] | Mortality (%) After 3 days (Fall Webworm Larva; spraying solution 100 ppm) [%] | also measured
COP(=S)(OC)Oc1ccc([N+](=O)[O-])c(C)c1 [Fenitrothion, fenitrothion] | 10 | 10 | 20 | 30 | 60 | 23.3 | 10 | 10 | 10 | 8.6 | 0 | 50 | 80 | 2.4 | 20 | 70 | 1.6 | 90 | 0 | 10 | Mortality (%) After 7 days (Pine Caterpillar Larva; spraying solution 200 ppm): 60%; Mortality (%) After 1 day (Pine Caterpillar Larva; spraying solution 500 ppm): 80%; Mortality (%) After 3 days (Pine Caterpillar Larva; spraying solution 500 ppm): 100%; Mortality (%) After 1 day (Pine Caterpillar Larva; spraying solution 1000 ppm): 100%; Mortality (%) After 7 days ([1]; spraying solution 20 ppm): 100%; Mortality (%) After 3 days ([1]; spraying solution 40 ppm): 100%; Mortality (%) After 7 days (Fall Webworm Larva; spraying solution 100 ppm): 20%; Mortality (%) After 1 day (Fall Webworm Larva; spraying solution 200 ppm): 30%; Mortality (%) After 3 days (Fall Webworm Larva; spraying solution 200 ppm): 60%; Mortality (%) After 7 days (Fall Webworm Larva; spraying solution 200 ppm): 70%; Mortality (%) After 1 day (Fall Webworm Larva; spraying solution 500 ppm): 80%; Mortality (%) After 3 days (Fall Webworm Larva; spraying solution 500 ppm): 100%; Mortality (%) After 1 day (Fall Webworm Larva; spraying solution 1000 ppm): 100%
CN1COCN(Cc2cnc(Cl)s2)/C1=N\[N+](=O)[O-] [Thiamethoxam, thiamethoxam] | 50 | 80 | 100 | 80 | 100 | 1.8 | 10 | 60 | 100 | 0.5 | 70 | 80 | 100 | 0.4 | 80 | 100 | 0.3 | 100 | 20 | 80 | Mortality (%) After 1 day (Pine Caterpillar Larva; spraying solution 20 ppm): 10%; Mortality (%) After 3 days (Pine Caterpillar Larva; spraying solution 20 ppm): 40%; Mortality (%) After 7 days (Pine Caterpillar Larva; spraying solution 20 ppm): 50%; Mortality (%) After 1 day (Pine Caterpillar Larva; spraying solution 50 ppm): 20%; Mortality (%) After 3 days (Pine Caterpillar Larva; spraying solution 50 ppm): 60%; Mortality (%) After 7 days (Pine Caterpillar Larva; spraying solution 50 ppm): 80%; Mortality (%) After 1 day (Fall Webworm Larva; spraying solution 50 ppm): 0%; Mortality (%) After 3 days (Fall Webworm Larva; spraying solution 50 ppm): 30%; Mortality (%) After 7 days (Fall Webworm Larva; spraying solution 50 ppm): 50%; Mortality (%) After 7 days (Fall Webworm Larva; spraying solution 100 ppm): 80%; Mortality (%) After 1 day (Fall Webworm Larva; spraying solution 200 ppm): 30%; Mortality (%) After 3 days (Fall Webworm Larva; spraying solution 200 ppm): 90%; Mortality (%) After 7 days (Fall Webworm Larva; spraying solution 200 ppm): 100%; Mortality (%) After 1 day (Fall Webworm Larva; spraying solution 300 ppm): 80%; Mortality (%) After 3 days (Fall Webworm Larva; spraying solution 300 ppm): 100%

— patent US8999359B2, “Composition that prevents damage to trees by harmful insects and a prevention method thereof” (Syngenta Crop Protection, Inc., priority 2004, dated 2015)
